Test results from publication PMC3434256 (Journal of the American Chemical Society, 2012).
Several values for one entry are separate records, joined by “and”; a condition that tells them apart may be missing. Identical values can stand only once. Like-named read-outs stand apart in the source and are kept apart here. Marks after values point to notes of the source that are not given here.

Tests used:
[1] = Nonenzymatic C-6 deuterium exchange catalyzed by deuterioxide ion in D2O; details: for kDO, second-order rate constant for deuterioxide-ion-catalyzed deuterium exchange at C-6: D2O; for kDO, second-order rate constant for deuterioxide-ion-catalyzed deuterium exchange at C-6 / kHO, second-order rate constant for proton transfer from C-6 to hydroxide ion: 25 °C; for kHO, second-order rate constant for proton transfer from C-6 to hydroxide ion: H2O, calculated from kDO using kDO/kHO = 2.4; for (Keq)aq, equilibrium constant for proton transfer from C-6 to a primary amine base of pKRNH3 = 7 in water: eq 12, pKCH of model nucleosides uridine and 5-fluorouridine
[2] = target: ScOMPDC; details: cited from earlier work; for Kd: read-out: (Kd)obsd, observed affinity of ScOMPDC, pH 7.2, H2O
[3] = cited from earlier work
[4] = target: T1, yeast orotidine 5′-monophosphate decarboxylase (ScOMPDC) (Saccharomyces cerevisiae, UniProt P03962, A160S/C155S/N267D/S2H); details: for kex, turnover number for deuterium exchange into enzyme-bound substrate / kex/Kd, second-order rate constant for enzyme-catalyzed deuterium exchange / (kex)max, intrinsic first-order rate constant (turnover number) for deuterium exchange into saturating substrate bound to the deprotonated enzyme: I = 0.1 (NaCl); for kex/Kd, second-order rate constant for enzyme-catalyzed deuterium exchange: ratio of kex and Kd; for free energy of binding to form the Michaelis complex: deprotonated enzyme; for (Keq)enz, equilibrium constant for proton transfer from C-6 of bound nucleotide to ScOMPDC: eq 11, krot = 10^7 s^−1; for Kd′/Kd, ratio of dissociation constants from protonated and deprotonated enzyme: from pKE - pKES; for stabilization of enzyme-bound vinyl carbanion relative to bound nucleotide: lower limit; for (kex)max, intrinsic first-order rate constant (turnover number) for deuterium exchange into saturating substrate bound to the deprotonated enzyme: pD-rate profile of kex fit to eq 7, D2O, 25 °C
[5] = pKa of the phosphoryl group by titration; type: physicochemical; details: D2O, I = 0.1, estimated from UMP pKa in H2O plus 0.5 unit
[6] = pKa of the N-3 hydron, spectrophotometric; type: physicochemical
[7] = target: T1, yeast orotidine 5′-monophosphate decarboxylase (ScOMPDC); assay: biochemical
[8] = titration, H2O, 25 °C, I = 0.1; cited from earlier work
[9] = tested on: ScOMPDC; details: pH 7.1, 25 °C; cited from earlier work
[10] = aqueous solution; cited from earlier work

T1 sequence (P03962 whole entry S2H/C155S/A160S/N267D): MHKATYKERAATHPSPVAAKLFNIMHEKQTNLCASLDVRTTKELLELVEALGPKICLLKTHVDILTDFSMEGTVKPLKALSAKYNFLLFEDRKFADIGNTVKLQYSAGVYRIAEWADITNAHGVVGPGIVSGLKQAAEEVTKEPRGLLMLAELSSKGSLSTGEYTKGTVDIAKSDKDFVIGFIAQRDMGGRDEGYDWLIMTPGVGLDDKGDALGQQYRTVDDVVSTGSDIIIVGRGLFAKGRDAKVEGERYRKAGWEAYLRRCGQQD

In the case of `Cn1cc(F)c(=O)n(C)c1=O`, the “kDO, second-order rate constant for deuterioxide-ion-catalyzed deuterium exchange at C-6” value [1] is reported as 0.043 M⁻¹ s⁻¹ and the “kHO, second-order rate constant for proton transfer from C-6 to hydroxide ion” value (shortened to “kHO, second-order rate constant”) [1] is reported as 0.018 M⁻¹ s⁻¹.

In the case of `O=c1ccn([C@H]2C[C@H](O)[C@@H](COP(=O)(O)O)O2)c(=O)[nH]1` [2′-deoxyuridine 5′-monophosphate], the Kd [2] is given as 170 µM.

With `O=c1[nH]c(=O)n(C2OC(CO)C(O)C2O)cc1F` (stereo not drawn) [5-Fluorouridine N-3 Anion, 5-fluorouridine N-3 anion] the “kDO, second-order rate constant for deuterioxide-ion-catalyzed deuterium exchange at C-6” value [1] was 6.8e-05 M⁻¹ s⁻¹ and the “kHO, second-order rate constant” value [1] was 2.8e-05 M⁻¹ s⁻¹.

In the case of `O=c1[nH]c(=O)n([C@@H]2O[C@H](CO)[C@@H](O)[C@H]2O)cc1F` [5-Fluorouridine, 5-fluorouridine], the “kDO, second-order rate constant for deuterioxide-ion-catalyzed deuterium exchange at C-6” value [1] is reported as 1.7 M⁻¹ s⁻¹, the “kHO, second-order rate constant” value [1] is reported as 0.71 M⁻¹ s⁻¹ and the “ko = kHO[HO^−], observed rate constant for C-6 deprotonation by hydroxide ion” value ([1]; water, pH 7.1) is reported as 9e-08 s⁻¹.

In the case of `O=c1[nH]c(=O)n([C@H]2C[C@H](O)[C@@H](COP(=O)(O)O)O2)cc1F` [5-fluoro-2′-deoxyuridine 5′-monophosphate], the Kd [2] is given as 250 µM and the “pKa of the N-3 proton (pKNH)” value ([3]; H2O, 25 °C, I = 0.1) is given as 7.90.

In the case of `O=c1[nH]c(=O)n([C@H]2C[C@H](O)[C@@H](CO)O2)cc1F` [5-fluoro-2′-deoxyuridine], the “pKa of the N-3 proton” value ([3]; H2O, 25 °C, I = 0.1) is given as 7.67.

For `O=c1cnn([C@@H]2O[C@H](COP(=O)(O)O)[C@@H](O)[C@H]2O)c(=O)[nH]1` [6-aza-UMP, 6-azauridine 5′-monophosphate], the Ki ([2]; pH 7.2, competitive inhibitor) is given as 0.093 µM and the “deuterium exchange into UMP (2 mM) in the presence of inhibitor” value ([4]; 2 mM 6-aza-UMP, 260 μM ScOMPDC, 2 days, pD 9.3, 25 °C) is given as “no detectable deuterium exchange”.

With `O=c1[nH]c(=O)n([C@@H]2O[C@H](COP(=O)(O)O)[C@@H](O)[C@H]2O)cc1F` [F-UMP, 5-fluorouridine 5′-monophosphate] the “pKSD2, ionization of the phosphoryl group” value [5] was 6.8, the “(Keq)aq, equilibrium constant for proton transfer from C-6 to a primary amine base of pKRNH3 = 7 in water” value [1] was 8 × 10^−19 and the “decrease in pKa of the side chain of Lys-93 upon binding (pKE - pKES)” value [4] was 1.4 unit. The “transition state stabilization for deuterium exchange” value [4] was 14 kcal/mol, the “kex, turnover number for deuterium exchange into enzyme-bound substrate” value ([4]; D2O, pD 6.45, 25 °C, fit to eq 5) was 0.00818 s⁻¹ and the “kex/Kd, second-order rate constant for enzyme-catalyzed deuterium exchange” value (shortened to “kex/Kd … for enzyme-catalyzed deuterium exchange”) ([4]; D2O, pD 6.45, 25 °C) was 8.3 M⁻¹ s⁻¹. The “kex, turnover number for deuterium exchange into enzyme-bound substrate” value ([4]; D2O, pD 7.03, 25 °C, fit to eq 5) was 0.0169 s⁻¹, the “kex/Kd … for enzyme-catalyzed deuterium exchange” value ([4]; D2O, pD 7.03, 25 °C) was 33 M⁻¹ s⁻¹ and the “kex, turnover number for deuterium exchange into enzyme-bound substrate” value ([4]; D2O, pD 7.37, 25 °C, fit to eq 5) was 0.0242 s⁻¹. For the same compound, the “kex/Kd … for enzyme-catalyzed deuterium exchange” value ([4]; D2O, pD 7.37, 25 °C) was 140 M⁻¹ s⁻¹, the “kex, turnover number for deuterium exchange into enzyme-bound substrate” value ([4]; D2O, pD 7.64, 25 °C, fit to eq 5) was 0.0324 s⁻¹ and the “kex/Kd … for enzyme-catalyzed deuterium exchange” value ([4]; D2O, pD 7.64, 25 °C) was 300 M⁻¹ s⁻¹. The “kex for deuterium exchange” value ([4]; D2O, pD 8.15, 25 °C, I = 0.10 (NaCl), fit of kobsd/[E] to eq 4) was 0.048 s⁻¹, the “kex, turnover number for deuterium exchange into enzyme-bound substrate” value ([4]; D2O, pD 8.15, 25 °C, fit to eq 5) was 0.0438 s⁻¹ and the “kex/Kd … for enzyme-catalyzed deuterium exchange” value ([4]; D2O, pD 8.15, 25 °C) was 400 M⁻¹ s⁻¹. For the same compound, the “kex, turnover number for deuterium exchange into enzyme-bound substrate” value ([4]; D2O, pD 9.33, 25 °C, fit to eq 5) was 0.0384 s⁻¹, the “kex/Kd … for enzyme-catalyzed deuterium exchange” value ([4]; D2O, pD 9.33, 25 °C) was 200 M⁻¹ s⁻¹ and the “stabilization of the transition state for deuterium exchange by the 5-fluoro substituent” value ([4]; F-UMP vs UMP) was 4.8 kcal/mol. For the same compound, the “pKE, pKa of the essential residue at the free enzyme” value ([4]; Saccharomyces cerevisiae) was 8.5 ± 0.2 ^d, the “pKES, pKa of the essential residue (Lys-93) at the E•S complex” value ([4]; Saccharomyces cerevisiae) was 7.1 ± 0.1 ^f and the “free energy of binding to form the Michaelis complex” value [4] was 6.4 kcal/mol. The “(Keq)enz, equilibrium constant for proton transfer from C-6 of bound nucleotide to ScOMPDC” value [4] was 4.1 × 10^−9, the “Kd′/Kd, ratio of dissociation constants from protonated and deprotonated enzyme” value [4] was 25 and the “stabilization of enzyme-bound vinyl carbanion relative to bound nucleotide” value [4] was “at least 13 kcal/mol”. For the same compound, the “(kex)max, intrinsic first-order rate constant (turnover number) for deuterium exchange into saturating substrate bound to the deprotonated enzyme” value [4] was 0.041 s⁻¹, the “total enzymatic rate acceleration for deuterium exchange” value ([4]; ratio of (kex)max/Kd and ko for 5-fluorouridine at pH 7.1) was 3e+10 M⁻¹ and the pKa ([6]; buffered D2O) was 8.37 ± 0.05. For the same compound, the pKa ([6]; buffered H2O) was 7.84 ± 0.03 and the Kd [7] was 140 µM.

For `O=C(O)c1cc(=O)[nH]c(=O)n1[C@@H]1O[C@H](COP(=O)(O)O)[C@@H](O)[C@H]1O` [OMP, orotidine 5′-monophosphate], the “pKa of the phosphoryl group” value [8] is given as 6.38, the kcat for decarboxylation [9] is given as 15 s⁻¹ and the “ko, nonenzymatic decarboxylation” value [10] is given as 2.8e-16 s⁻¹.

In the case of `O=c1ccn([C@@H]2O[C@H](COP(=O)(O)O)[C@@H](O)[C@H]2O)c(=O)[nH]1` [UMP, uridine 5′-monophosphate], the “pKa of the phosphoryl group” value [8] is listed as 6.26 and 6.3, the “(Keq)aq, equilibrium constant for proton transfer from C-6 to a primary amine base of pKRNH3 = 7 in water” value [1] is listed as 2 × 10^−22 and the “decrease in pKa of the side chain of Lys-93 upon binding (pKE - pKES)” value [4] is listed as 0.5 unit. The “kex, turnover number for deuterium exchange into enzyme-bound substrate” value ([4]; D2O, pD 7.03, 25 °C, average of kobsd[UMP]o/[E]) was 1.2e-06 s⁻¹, the “kex, turnover number for deuterium exchange into enzyme-bound substrate” value ([4]; D2O, pD 7.58, 25 °C, average of kobsd[UMP]o/[E]) was 3.19e-06 s⁻¹ and the “kex, turnover number for deuterium exchange into enzyme-bound substrate” value ([4]; D2O, pD 8.13, 25 °C, average of kobsd[UMP]o/[E]) was 7.53e-06 s⁻¹. The “kex, turnover number for deuterium exchange into enzyme-bound substrate” value ([4]; D2O, pD 9.34, 25 °C, average of kobsd[UMP]o/[E]) was 1.15e-05 s⁻¹, the “free energy of binding to form the Michaelis complex” value [4] was 6.4 kcal/mol and the “(Keq)enz, equilibrium constant for proton transfer from C-6 of bound nucleotide to ScOMPDC” value [4] was 1.2 × 10^−12. The “Kd′/Kd, ratio of dissociation constants from protonated and deprotonated enzyme” value [4] was 3, the “stabilization of enzyme-bound vinyl carbanion relative to bound nucleotide” value [4] was “at least 13 kcal/mol” and the “hydrolysis of the 5′-phosphoryl group during exchange reaction” value ([4]; pD 7.0) was “up to 19%”. The “hydrolysis of the glycosidic bond to give uracil during exchange reaction” value ([4]; pD 7.0) was “up to 24%”, the “hydrolysis of the 5′-phosphoryl group to give uridine during exchange reaction” value ([4]; pD 7.6 – 9.3) was “up to 4%” and the “(kex)max, intrinsic first-order rate constant (turnover number) for deuterium exchange into saturating substrate bound to the deprotonated enzyme” value [4] was 1.2e-05 s⁻¹. For the same compound, the “pKa of the N-3 proton (pKNH)” value ([3]; H2O, 25 °C, I = 0.1) was 9.7 and the pKNH ([3]; ref Jencks, Regenstein, Handbook of Biochemistry and Molecular Biology 1976) was 9.5.

For `O=c1ccn([C@@H]2O[C@H](CO)[C@@H](O)[C@H]2O)c(=O)[nH]1` [Uridine N-3 Anion, uridine N-3 anion], the “kDO, second-order rate constant for deuterioxide-ion-catalyzed deuterium exchange at C-6” value [1] was 1.5e-08 M⁻¹ s⁻¹ and the “kHO, second-order rate constant” value [1] was 6.3e-09 M⁻¹ s⁻¹.

In the case of `O=c1ccn([C@@H]2O[C@H](CO)[C@@H](O)[C@H]2O)c(=O)[nH]1` [Uridine, uridine], the “kHO, second-order rate constant” value [1] is reported as 0.00016 M⁻¹ s⁻¹.

In the case of `O=C[C@H](O)[C@H](O)[C@H](O)COP(=O)(O)O` [ribose 5′-monophosphate], the “pKa of the phosphoryl group” value [8] is given as 6.25.
